Assay results: patent US7091225B2, “Substituted oxazoles and thiazoles as hPPAR alpha agonists” (SmithKline Beecham Corporation, priority 2000, dated 2006)

Assays:
[1] = target: T1, human PPAR gamma (Homo sapiens, UniProt P37231); assay: Transient transfection (transactivation) assay in CV-1 cells, hPPAR gamma; type: cell-based; details: PPAR transactivation activity; GAL4-PPAR LBD chimera in CV-1 cells; concentration achieving 50% of maximum activity; read-out: human γEC50
T1 construct: expressed in transfected cells; host or cells: CV-1 cells
T1 sequence (P37231 238-503 limits assumed): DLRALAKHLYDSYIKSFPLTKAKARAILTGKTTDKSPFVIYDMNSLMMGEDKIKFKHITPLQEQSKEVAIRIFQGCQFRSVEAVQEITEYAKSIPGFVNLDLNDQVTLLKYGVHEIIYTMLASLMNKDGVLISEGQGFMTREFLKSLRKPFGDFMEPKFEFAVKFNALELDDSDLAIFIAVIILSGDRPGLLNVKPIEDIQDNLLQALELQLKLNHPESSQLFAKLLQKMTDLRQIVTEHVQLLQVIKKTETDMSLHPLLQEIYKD
Source text: (§1) Most preferably, the compounds of formula (I) are selective hPPARalpha agonists. As used herein, a “selective hPPAR alpha agonist” is a hPPARalpha agonist whose EC50 for PPARalpha is at least 10 fold lower than its EC50 for PPAR gamma and PPAR delta. […] Most preferred compounds are greater than 100-fold selective hPPARalpha agonists (see Table 1).
(§2) Compounds were screened for functional potency in transient transfection assays in CV-1 cells for their ability to activate the PPAR subtypes (transactivation assay). A previously established chimeric receptor system was utilized to allow comparison of the relative transcriptional activity of the receptor subtypes on the same target gene and to prevent endogenous receptor activation from complicating the interpretation of results. See, for example, Lehmann, J. M.; Moore, L. B.; Smith-Oliver, T. A.; Wilkison, W. O.; Willson, T. M.; Kliewer, S. A., An antidiabetic thiazolidinedione is a high affinity ligand for peroxisome proliferator-activated receptor γ (PPARγ), J. Biol. Chem., 1995, 270, 12953–6. The ligand binding domains for murine and human PPAR alpha, PPAR gamma, and PPAR delta were each fused to the yeast transcription factor GAL4 DNA binding domain. […]

[2] = target: T2, human PPAR alpha (Homo sapiens, UniProt Q07869); assay: Transient transfection (transactivation) assay in CV-1 cells, hPPAR alpha; type: cell-based; details: PPAR transactivation activity; GAL4-PPAR LBD chimera in CV-1 cells; concentration achieving 50% of maximum activity; read-out: human αEC50
T2 construct: expressed in transfected cells; host or cells: CV-1 cells
T2 sequence (Q07869 239-466 limits assumed): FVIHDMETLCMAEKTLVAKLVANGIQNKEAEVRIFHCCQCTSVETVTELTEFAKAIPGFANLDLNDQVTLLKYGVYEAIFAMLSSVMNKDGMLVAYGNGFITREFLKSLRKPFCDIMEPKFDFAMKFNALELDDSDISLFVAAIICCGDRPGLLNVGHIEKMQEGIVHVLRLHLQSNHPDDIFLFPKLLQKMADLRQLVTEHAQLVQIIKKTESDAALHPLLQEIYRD
Source text: as §1, §2

[3] = target: T3, human PPAR delta (Homo sapiens, UniProt Q03181); assay: Transient transfection (transactivation) assay in CV-1 cells, hPPAR delta; type: cell-based; details: PPAR transactivation activity; GAL4-PPAR LBD chimera in CV-1 cells; concentration achieving 50% of maximum activity; read-out: human δEC50
T3 construct: expressed in transfected cells; host or cells: CV-1 cells
T3 sequence (Q03181 211-439 limits assumed): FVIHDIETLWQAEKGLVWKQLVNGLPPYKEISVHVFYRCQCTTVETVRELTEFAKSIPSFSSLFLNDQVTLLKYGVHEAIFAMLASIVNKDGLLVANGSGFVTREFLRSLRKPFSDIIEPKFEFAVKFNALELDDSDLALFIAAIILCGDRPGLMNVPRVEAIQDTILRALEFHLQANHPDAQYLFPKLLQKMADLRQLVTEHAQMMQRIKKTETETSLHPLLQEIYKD
Source text: as §1, §2

EC50 [1] [nM]	EC50 [2] [nM]	EC50 [3] [nM]	melting point [°C]	Structure (SMILES)
3600	10	1600		Cc1nc(-c2ccc(C(F)(F)F)cc2)sc1COc1cccc(CSCC(=O)O)c1 [Example 4, 2-{[(3-[4-methyl-2-(4-trifluoromethylphenyl)thiazol-5-yl]methoxy)benzyl]thio}acetic acid]
			136	Cc1nc(-c2ccc(C(F)(F)F)cc2)sc1C(C)(C)Oc1cccc(COC(C)(C)C(=O)O)c1 [Example 10, 2-methyl-2-[3-{1-methyl-1-[4-methyl-2-(4-trifluoromethylphenyl)thiazol-5-yl]ethoxy}benzyloxy]propionic acid]
2600	2	3200		Cc1nc(-c2ccc(C(F)(F)F)cc2)sc1COc1cccc(COC(C)(C)C(=O)O)c1 [Example 2, 2-methyl-2-{(3-[4-methyl-2-(4-trifluoromethylphenyl)thiazol-5-yl]methoxy)benzyloxy}propionic acid]
			121	Cc1nc(-c2ccc(C(F)(F)F)cc2)sc1COc1cccc(COCC(=O)O)c1 [Example 6, 2-{(3-[4-methyl-2-(4-trifluoromethylphenyl)thiazol-5-yl]methoxy)benzyloxy}acetic acid]
